From PMC2823781, “The X-Ray Crystal Structure of Escherichia coli Succinic Semialdehyde Dehydrogenase; Structural Insights into NADP^+/Enzyme Interactions” (PLoS ONE, 2010)

Columns and labels:
[1] = biological target: T1, E. coli SSADH (gabD gene product) (Escherichia coli, UniProt P25526); assay: fluorometric NADPH formation (ex […] nm, em […] nm); type: biochemical; details: 1.1 mM NADP+, 100 mM Na phosphate pH 8.0, 30 °C; varied substrate SSA (range printed as 0–400 mM), substrate not named beside Km
T1 construct: expressed in E. coli BL21(DE3) pLysS; homotetramer, 481 residues per monomer in crystal; single amino acid change versus database gabD, not specified

[2] = biological target: Escherichia coli succinic semialdehyde dehydrogenase (gabD gene product, NADP+-dependent) (E. coli) (UniProt P25526); assay: SEC; analytical size-exclusion chromatography of purified recombinant SSADH; data not shown

O=CCCC(=O)O [SSA, succinic semialdehyde]
Km [1]: 16.9 ± 2.2 µM

Escherichia coli succinic semialdehyde dehydrogenase (gabD gene product, NADP+-dependent) (from UniProt P25526 1-482) (enzyme)
stoichiometry N [2]: 4
